According to patent publication US9265789B2, “Targeting CLPTM1L by RNA interference for treatment and prevention of cancer” (The Medical College of Wisconsin, Inc., priority 2013, dated 2016):

Legend:
[1] = test system: Ras transformed 3T3 cells; experiment: Soft agar anchorage independent growth assay; format: cell-based, mouse
Protocol: (§1) NIH3T3 cells acquired within the last 6 months from ATCC were cultured in DMEM 10% FBS to 80% confluence before co-transfecting with the indicated expression and shRNA vectors using Lipofectamine LTX (Invitrogen, Carlsbad, Calif.). Cells were split, allowed to attach and placed on puromycin selection for 3 days or until mock transfected cells were dead. Cells were plated at the indicated densities and fed as needed. For whole plate staining, cells were fixed in cold methanol and stained with crystal violet. For anchorage independent growth, cell were suspended in 0.4% agarose in complete growth media and plate over 0.8% bottom agar at 10,000 cells per well (H-Ras) or 20,000 cells per well (K-Ras) of a six-well tissue culture dish in triplicate. Cells were fed twice a week over 4 weeks in culture, and colonies were stained using cell staining reagent and protocol from Millipore's Cell Transformation Detection Assay. Images of wells were captured and analyzed by Image J software to count colonies. P-values were determined using a two-tailed Student's T-Test.

[2] = test system: oncogenic K-Ras driven lung tumors; experiment: shRNA/K-Ras LSL-G12D/+ mouse model of lung tumorigenesis; format: in vivo; details: for inhibition of tumor number / inhibition of tumor load: vs scrambled shRNA
Protocol: Mouse experiments were conducted as described by DuPage et al., Nat. Protoc. 4:1064 (2009), with the following modifications. pLKO.1 empty shRNA vector was obtained from Open Biosystems (Foster City, Calif.). Short hairpin inserts were designed to specifically target transcripts. Oligos were ordered from IDT (Coralville, Iowa). Complimentary oligos were heated to 95° C., cooled to room temperature overnight and ligated into digested pLKO.1. Validated constructs used in mouse experiments had the following short-hairpin sequences:
Vectors were modified by replacing the PGK promoter and puromycin resistance orf with the CMV promoter driving expression of CRE-GFP. CMV promoter was sub-cloned from pLenti CMV GFP Puro plasmid #17448 (Addgene) and CRE-GFP was sub-cloned from pCAG:CRE-GFP plasmid #13776 (Addgene). Virus was packaged in 293T cells and functionally titered by infecting 3TZ cells (LSL-LacZ), which express LacZ upon Cre recombinase activation. Mice were anesthetized with 200 μL Avertin ([…]). 10^^4 or 10^^3 active virus particles in 50 μl of phosphate buffered saline was delivered via intratracheal intubation using a 22-gauge IV catheter under general anesthesia to 10 transgenic mice per group (LSL-K-RasG12D (Mouse Models of Human Cancers Consortium (MMHCC) Strain 01XJ6, Jackson Laboratory #008179 (B6), #008180 (129)). […] The thoracic cavity was surgically opened to expose the lungs. The trachea was cannulated with a 22G catheter and lungs were inflated with Tellyesniczky's solution (70% ethanol, 2% formaldehyde, and 5% acetic acid) at 25 cm of pressure by gravity. Lungs were fixed overnight and the solution was exchanged to 70% ethanol the next day. Lungs were photographed, lobes were separated and cleaned. Tumors were counted and measured with digital calipers. A cutoff for visible tumors of 0.2 mm diameter was used. Tumor volume was determined by the following formula: A=4/3πr^3. P-values were determined using a two-tailed Student's T-Test.

[3] = test system: phosphorylated (T308) Akt; experiment: Western blotting for phosphorylated (T308) Akt in NIH3T3 cells with K-RasV12 expression; format: cell-based, mouse; details: NIH3T3 cells expressing K-RasV12, CLPTM1L stably depleted
Protocol: (§2) The indicated cell lines were treated with cisplatin at the indicated concentrations on 6-well plates for 72 hours. Cells were lysed with 100 μl of 1× NP40 lysis buffer containing proteinase inhibitors, sheared 10 times with a 28 gauge needle, spun at 16,000×g for 30 minutes, normalized by protein concentration as determined by the Bradford method, and the supernatant boiled for 5 minutes. 20 μl of normalized lysate was resolved by SDS-PAGE and immunoblotting analyzed with indicated antibodies. […] Quantitation of Western analyses of three independent cultures was done using Image J software available online from the National Institutes of Heath at rsbweb.nih.gov on the World Wide Web.
(§3) NIH3T3 cells acquired within the last 6 months from ATCC were cultured in DMEM 10% FBS to 80% confluence before co-transfecting with the indicated expression and shRNA vectors using Lipofectamine LTX (Invitrogen, Carlsbad, Calif.). […] Images of wells were captured and analyzed by Image J software to count colonies. P-values were determined using a two-tailed Student's T-Test.

3T3 mouse fibroblasts = experiment: Transformation assay (morphology, foci) in Ras-transfected 3T3 fibroblasts; format: cell-based
Protocol: as §1

Bcl-xL [4] = experiment: Western blotting for Bcl-xL in NIH3T3 cells with K-RasV12 expression; format: cell-based, mouse
Protocol: as §2, §3

Bcl-xL [5] = experiment: Bcl-xL protein accumulation by western blot in Spon8 cells; format: cell-based, mouse
Protocol: The indicated cell lines were treated with cisplatin at the indicated concentrations on 6-well plates for 72 hours. Cells were lysed with 100 μl of 1× NP40 lysis buffer containing proteinase inhibitors, sheared 10 times with a 28 gauge needle, spun at 16,000×g for 30 minutes, normalized by protein concentration as determined by the Bradford method, and the supernatant boiled for 5 minutes. 20 μl of normalized lysate was resolved by SDS-PAGE and immunoblotting analyzed with indicated antibodies. The following antibodies were used: rabbit anti-CLPTM1L (Novus Biologicals, Littleton, Colo.), mouse anti-Actin (Santa Cruz Biotechnology, Santa Cruz, Calif.), mouse anti-Bcl2 clone 124 (Dako, Carpinteria, Calif.), rabbit anti-Bax #2774 (Cell Signaling, Boston, Mass.), mouse anti-p53 (Ab-1) (Oncogene, San Diego, Calif.), Bcl-xL-rabbit Bcl2L1 (AbCam, Cambridge, Mass.), rabbit anti-H-Ras (Novus Biologicals, Littleton, Colo.), mouse anti-K-Ras(BD Transduction Labs, Franklin, N.J.), anti-Akt(Cell Signaling, Boston, Mass.), antipAKT(Thr308)(Cell Signaling, Boston, Mass.), rabbit anti-PIK3C3 (Cell Signaling, Boston, Mass.), rabbit anti-BAD(AbCam, Cambridge, Mass.). Quantitation of Western analyses of three independent cultures was done using Image J software available online from the National Institutes of Heath at rsbweb.nih.gov on the World Wide Web.

CLPTM1L transcript = CLPTM1L transcript knockdown by RT-quantitative real-time PCR in Spon8 cells; format: cell-based; details: Spon8 mouse lung tumor cells; qPCR normalized to beta-Actin
Protocol: Spon8 cells were cultured in RPMI1640 plus 2% FBS (Invitrogen, Carlsbad, Calif.). Cells were transduced with lentiviral short-hairpin RNA (shRNA) vectors based on the pLKO.1 vector and designed to specifically target human CLPTM1L transcript (Sigma, St. Louis). Empty vector or vector knocking down CLPTM1L transcript were first packaged in 293T cells (Orbigen, San Diego, Calif.) by transfection with helper plasmids using Lipofectamine LTX (Invitrogen, Carlsbad, Calif.) and then transduced into Spon 8 cells with 8 μg/ml Polybrene (Sigma, St. Louis, Mo.). Media was replaced 24 hours after transduction, and cells were split 1:4 48 hours after transduction. […]
Patient matched tumor and tumor-adjacent normal RNA samples were obtained from the Tissue Procurement Core at Washington University in St. Louis under protocol approved by the Institutional Review Board at Washington University in St. Louis School of Medicine, Human Research Protection Office. […] Quantitative real-time PCR (qPCR) was conducted using the method as described previously (Chaparro, Wen et al. 2005). […] Quantitative RT-PCR assay was done using the SYBR Green PCR Master Mix (Applied Biosystems, Foster City, Calif.). […] Data were collected and analyzed with Stratagene Mx3000 software. […] Primer set efficiency and linearity was calculated, and normalization was performed in accordance with MIQE guidelines. […]

[6] = test system: Spon8 mouse lung tumor cells; experiment: Viability assay (MTS) after cisplatin treatment; format: cell-based; details: 20 μM cisplatin for 48 hours; compared to vector and sh1; p=9.6E-6
Protocol: Cells stably expressing shRNA vectors as described above were seeded onto 12-well tissue culture dishes at equal densities of approximately 50% in triplicate. After attachment overnight followed by 48 hours of treatment with the indicated concentrations of cisplatin (Sigma, St. Louis, Mo.) dissolved in media. DMSO concentrations in culture media were kept consistent and were at or below 0.08%. Cell viability was measured by Cell Titer 96 Aqueous One Solution Cell Proliferation Assay (MTS) in triplicate. P-values were determined by one-tailed Student's T-Test.

TERT transcript = TERT transcript knockdown in Spon8 cells; format: cell-based; details: Spon8 mouse lung tumor cells
[7] = high dose group 10^4 functional particles intratracheal, 24 weeks
[8] = low dose group 10^3 particles, 28 weeks post-infection

Row | Molecule | average colonies per well in soft agar ([1]; H-RasV12 expressing 3T3 cells, 10,000 cells per well, control 18 colonies, p<0.03) | inhibition of soft agar colony formation ([1]; K-RasV12 transformed 3T3 cells, 20,000 cells per well, control 56 colonies per well, p<0.02) | average tumor load [2, 7] | average tumor number [2, 7] | inhibition of tumor number ([2]; high dose group, p=0.02) | inhibition of tumor load ([2]; high dose group, p=0.03) | average tumor load [2, 8] | average tumor number [2, 8] | inhibition of tumor load ([2]; low dose group, p<0.002) | inhibition of tumor number ([2]; low dose group, p<0.004) | K-RasV12 induced elevation of phospho-Akt [3] | transformed phenotype (foci) on stable co-transfection with H-RasV12 or K-RasV12 (3T3 mouse fibroblasts) | morphological changes with shRNA alone compared to vector controls (3T3 mouse fibroblasts; no Ras) | K-RasV12 induced elevation of Bcl-xL (Bcl-xL [4]; NIH3T3 cells expressing K-RasV12, CLPTM1L stably depleted) | Bcl-xL expression with loss of CLPTM1L (Bcl-xL [4]; NIH3T3 mouse fibroblasts, western blotting) | Bcl-xL expression upon CLPTM1L depletion (Bcl-xL [5]) | knockdown of CLPTM1L at the transcript level (CLPTM1L transcript) | sensitivity to cisplatin-induced killing (MTS viability) [6] | tumor number and load compared with scrambled control ([2]; high dose group, p=0.58) | knockdown of TERT at the transcript level (TERT transcript)
1 | shCLP168m: shRNA targeting CLPTM1L, mature sense strand AACTGCATCCAGCCCTATCTG (SEQ ID NO: 4), pLKO.1 lentiviral vector | one | 47% | 3.4 mm^3 | 46 tumors per mouse | 60% | 74% | 0.01 mm^3 | 0.14 tumors | 98% | 98% | ablated | no transformed foci were observed | did not demonstrate morphological changes | ablated | decrease in Bcl-xL expression | concurrently reduced | 80% | increased sensitivity to cisplatin |  | 
2 | shTERT1: lentiviral shRNA vector targeting TERT (oligos SEQ ID NO: 28/29), used as additional control (nucleic acid) sense: CCGGAAGTCTGCCGTTGCCCAAGAGCTCGAGCTCTTGGGCAACGGCAGACTTTTTTT antisense: AATTAAAAAAACTGCATCCAGCCCTATCTGCTCGAGCAGATAGGGCTGGATGCAGTT |  |  | 10.2 mm^3 | 122 tumors per mouse |  |  | 0.41 mm^3 | 5 tumors |  |  |  |  |  |  |  |  |  |  | statistically similar to the control group | 50%
